Values quoted from earlier work as cited in patent publication EP0225997A2, “Use of urea derivatives for preparing a pharmaceutical composition for the treatment of a virus-induced disease” (Die Deutsches Primatenzentrum GmbH, priority 1985, dated 1987).

System: HTLV-III
Conditions: Mitsuya et al. Science, 226 page 172-174, 1984

Cc1ccc(C(=O)Nc2ccc(S(=O)(=O)O)c3cc(S(=O)(=O)O)cc(S(=O)(=O)O)c23)cc1NC(=O)c1cccc(NC(=O)Nc2cccc(C(=O)Nc3cc(C(=O)Nc4ccc(S(=O)(=O)O)c5cc(S(=O)(=O)O)cc(S(=O)(=O)O)c45)ccc3C)c2)c1 [suramin]
HTLV-III replications in culture: reduce HTLV-III replications in culture
